We go through three molecules from patent US10100052B2, “Compounds for the treatment of hepatitis B virus infection” (Gilead Sciences, Inc., priority 2016, dated 2018).

Data set [1] can be described thus: Pharmacokinetic analysis following intravenous administration to rats. The data set is classed as in vivo. Conditions: male, Sprague-Dawley, rat, intravenous infusion over 30 min, 1 mg/kg; for clearance / Vd: plasma; for Vd: read-out: Vss; for half-life: terminal plasma half-life. The method, then:
Pharmacokinetic analysis was performed on various test compounds following intravenous or oral administration to male Sprague-Dawley rats.
For pharmacokinetic analysis of intravenously administered compounds, the test compounds were formulated in 5% NMP, 30% PG, 45% PEG 300 and 20% water at 0.5 mg/mL for IV infusion. For pharmacokinetic analysis following oral administration, compounds were formulated in the same vehicle and concentration.
Each dosing group consisted of 3 male, naïve Sprague-Dawley rats. At dosing, animals weighed approximately 0.28 kg. The animals were fasted overnight prior to dose administration and up to 4 hr after dosing. For studies of intravenous administration, the test article was administered to the animals by intravenous infusion over 30 min. The rate of infusion was adjusted according to the body weight of each animal to deliver a dose of 1 mg/kg. For studies of oral administration, the test article was administered according to the body weight of each animal to deliver a dose of 5 mg/kg.
For pharmacokinetic analysis of intravenously administered compounds, serial venous blood samples (approximately 0.3 mL each) were taken from each animal at 0, 0.250, 0.483, 0.583, 0.750, 1.50, 3.00, 6.00, 8.00, 12.0, and 24.0 hours after dosing. The blood samples were collected into Vacutainer™ tubes containing EDTA-K2 as the anti-coagulant and were immediately placed on wet ice pending centrifugation for plasma. An LC/MS/MS method was used to measure the concentration of the test compound in plasma. An aliquot of 100 μL of each plasma sample was added to a clean 96 well plate, and 400 μL of cold acetonitrile/internal standard solution (ACN)/(ISTD) was added. After protein precipitation, an aliquot of 100 μL of the supernatant was transferred to a clean 96-well plate and diluted with 175 μL of water. An aliquot of 10 μL of the above solution was injected into an ABSciex API-4000 LC/MS/MS system utilizing a HyPurity C18 HPLC column (30×2.1 mm, 3 m; Thermo-Hypersil Part #22103-032130). An Agilent 1200 series binary pump (P/N G1312A Bin Pump) was used for elution and separation, and an HTS Pal autosampler (LEAP Technologies, Carrboro, N.C.) was used for sample injection. A TSQ Quantum Ultra triple quadrupole mass spectrometer was utilized in selective reaction monitoring mode (Applied Biosystems, Foster City, Calif.). Liquid chromatography was performed using two mobile phases: mobile phase A contained 0.1% formic acid and 1% isopropanol in water; and mobile phase B contained 0.1% formic acid and 1% isopropanol in acetonitrile. Non-compartmental pharmacokinetic analysis was performed on the plasma concentration-time data.
The resulting data are shown in the first three columns of Table 4. In Table 4, CL refers to clearance, which characterizes the rate at which drug is removed from plasma. The lower the clearance of a drug is, the longer the elimination half-life is in the body. Vss refers to the steady state volume of distribution and indicates how well a drug is distributed into the tissues. The larger the Vss is, the longer the elimination half-life is in the body. T1/2 refers to the terminal plasma half-life of the compound.

The nature of data set [2]: In vitro metabolic stability, hepatocytes (rat). Format: in vitro ADME. Conditions: rat hepatocytes 1×10^6 cells/mL, 2 μM compound; read-out: Hepatocyte Stability T1/2 Rat (converted). The method, then: (§1) For hepatocyte stability incubations, cells were obtained from BioreclamationIVT (Baltimore, Md.), thawed according to the manufacturer's directions, and resuspended to a final concentration of 1×10^6 cells/mL in Krebs-Henseleit buffer prewarmed to 37° C. The total cell count and the proportion of viable cells were determined by Trypan Blue dye exclusion using a hemocytometer. The final concentration of test compounds and positive controls was 2 μM. Incubations were carried out in duplicate wells of a 24-well plate out with gentle shaking at 37° C. under a humid atmosphere of 95% air/5% CO2 (v/v). Aliquots (50 μL) were removed after 0, 1, 3, and 6 hours and added to 100 μL quenching solution. Samples were then processed and analyzed in a manner similar to the microsomal stability samples.
(§2) Quantification of test compounds and positive controls were performed using analyte/internal standard peak area ratios (PAR) measured on a Q-Exactive mass spectrometer (Thermo Scientific, San Jose, Calif.) coupled to an Aria Transcend LX-4 multiplex UHPLC system (Thermo Scientific, San Jose, Calif.). […] Half-lives of compounds in the incubations were calculated from extracted data using GMSU/QuickCalc (Gubbs, Inc.) and data are summarized in the following Table 3.

The nature of data set [3]: MT-4 cytotoxicity assay. The data set is classed as cell-based. As to conditions: human, MT-4 cells; five days incubation, Cell Titer Glo. The protocol:
The MT-4 cell line (HTLV-1 transformed, human T lymphoblastoid cells) was obtained from the NIH AIDS Reagent program (Bethesda, Md.). MT-4 cells were maintained in RPMI-1640 supplemented with 10% fetal bovine serum (FBS, Hyclone, Logan, Utah). All cell culture media were also supplemented with 100 Units/mL penicillin, 100 μg/mL streptomycin (Gibco). For the MT-4 cytotoxicity assay, 0.4 μL of serially diluted solutions of certain compounds disclosed herein were added to 40 μL of cell maintenance media in 384-well black, solid bottom plate using a Biomek FX workstation (Beckman Coulter). Two thousand cells in 35 μL were added to each well using a Biotek uFlow Workstation (Biotek). Each assay plate contained 10 μM puromycin (final concentration) and 0.5% DMSO in RPMI-1640 as positive and negative controls, respectively. Assay plates were incubated for five days at 37° C. in an incubator set at 5% CO2 and 90% humidity. After five days, 22 μL of Cell Titer Glo reagent (Promega) was added to the assay plates with a Biotek uFlow Workstation. Plates were subsequently placed on a Perkin Elmer Envision Plate Reader for five minutes before the luminescence signal was read. CC50 values were calculated by non-linear regression using Pipeline Pilot software by applying a four parameter fit equation (Accelrys, San Diego, Calif.) and are reported in the following Table 2.
(ATP-based viability assays read luminescence as a measure of living cells.)

The nature of data set [4]: In vitro metabolic stability, hepatocytes (human). The data set is classed as in vitro ADME. As to conditions: human hepatocytes 1×10^6 cells/mL, 2 μM compound; read-out: Hepatocyte Stability T1/2 Human (converted). The method, then: as §1, §2

As usually defined, the clearance is the rate of elimination divided by the concentration. As a reminder, the CC50 is the concentration that lowers cell viability or growth by half. As to `COCCCOc1cc2c(cc1Cl)-c1cc(=O)c(C(=O)O)cn1[C@H](C1(C)CC1)C2` [Comparative Example 1], in data set [1], the clearance was 5.67 mL/min/kg, the Vd was determined as 0.57 L/kg and the half-life is 97.2 min. Also, the half-life at 2 μM in data set [2] was 420 min. It took 4.2 µM to reach half-maximal cytotoxicity in data set [3] (CC50 at 5 days). For the same molecule, the half-life at 2 μM in data set [4] was 534 min.

As to `COCCCOc1cc2c(cc1Cl)-c1cc(=O)c(C(=O)O)cn1N(C(C)(C)C)C2` [Example 2, 6-(tert-Butyl)-10-chloro-9-(3-methoxypropoxy)-2-oxo-6,7-dihydro-2H-pyrido[2,1-a]-phthalazine-3-carboxylic acid], in data set [1], the clearance is 2.97 mL/min/kg, the Vd stood at 0.623 L/kg and the half-life was 200 min. Also, in data set [2], the half-life at 2 μM was > 2370 min. In addition, in data set [3], the CC50 at 5 days was > 10 µM. Also, the half-life at 2 μM in data set [4] is 1600 min.

In the case of `COCCCOc1cc2c(cc1Cl)-c1cc(=O)c(C(=O)O)cn1[C@H](C(C)(C)C)C2` [Comparative Example 2], in data set [1], the clearance was 5.05 mL/min/kg, the Vd was 0.661 L/kg and the half-life was 119 min. The molecule further registered a CC50 at 5 days in data set [3] of 5.7 µM.
